Measured values reported in patent US6737383B1, “Herbicidal oxadiazolidines” (priority 1999, dated 2004).

Key:
velvetleaf = test: Test B pre/postemergence velvetleaf; type: in vivo, Abutilon theophrasti; conditions: for Plant response rating, Velvetleaf: Rate 250 g/ha
Procedure, shortened: (§1)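 Test chemicals in a non-phytotoxic solvent mixture with surfactant were sprayed preemergence onto planted seeds and postemergence onto plants 2 to 18 cm tall (1- to 4-leaf stage). After twelve to sixteen days in a greenhouse, injury was visually rated against untreated controls from 0 (no effect) to 10 (complete control).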

purple nutsedge = test: Test B pre/postemergence purple nutsedge; type: in vivo, Cyperus rotundus
Procedure, shortened: as §1

rice = test: Test B flood test rice; type: in vivo, Oryza sativa
Procedure, shortened: (§2)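 Read-out is a visual response score from 0 (no effect) to 10 (complete control), assigned by comparison with untreated controls. Treatment was applied at the 2-leaf stage, and plants stayed in the greenhouse for twelve to sixteen days before scoring.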

surinam grass = test: Test B pre/postemergence surinam grass; type: in vivo, Brachiaria decumbens
Procedure, shortened: as §1

wheat = test: Test B pre/postemergence wheat; type: in vivo, Triticum aestivum; conditions: for Plant response rating, Wheat: Rate 250 g/ha
Procedure, shortened: as §1

duck salad = test: Test B flood test duck salad; type: in vivo, Heteranthera limosa
Procedure, shortened: as §2

crabgrass = test: Test B pre/postemergence crabgrass; type: in vivo, Digitaria sanguinalis
Procedure, shortened: as §1

blackgrass = test: Test B pre/postemergence blackgrass; type: in vivo, Alopecurus myosuroides
Procedure, shortened: as §1

sugar beet = test: Test B pre/postemergence sugar beet; type: in vivo, Beta vulgaris; conditions: for Plant response rating, Sugarbeets: Rate 250 g/ha
Procedure, shortened: as §1

wild oat = test: Test B pre/postemergence wild oat; type: in vivo, Avena fatua; conditions: for Plant response rating, Wild oats: Rate 250 g/ha
Procedure, shortened: as §1

bedstraw = test: Test B pre/postemergence bedstraw; type: in vivo, Galium aparine
Procedure, shortened: as §1

cocklebur = test: Test B pre/postemergence cocklebur; type: in vivo, Xanthium strumarium
Procedure, shortened: as §1

pigweed = test: Test B pre/postemergence pigweed; type: in vivo, Amaranthus retroflexus
Procedure, shortened: as §1

bamyardgrass = test: Test B flood test barnyardgrass; type: in vivo, Echinochloa crus-galli
Procedure, shortened: as §2

morningglory = test: Test B pre/postemergence morningglory; type: in vivo, Ipomoea hederacea
Procedure, shortened: as §1

giant foxtail = test: Test B pre/postemergence giant foxtail; type: in vivo, Setaria faberii
Procedure, shortened: as §1

[1] = Postemergence, Rate 125 g/ha, scale of 0 to 10 where 0 is no effect and 10 is complete control
[2] = Preemergence, Rate 62 g/ha, scale 0 to 10 (0 no effect, 10 complete control)
[3] = Preemergence, Rate 125 g/ha, 0 is no effect, 10 is complete control
[4] = Preemergence, scale of 0 to 10 where 0 is no effect and 10 is complete control
[5] = Preemergence, Rate 500 g/ha, scale 0 to 10 (0 no effect, 10 complete control)
[6] = Rate 62 g/ha, Postemergence, scale of 0 to 10 where 0 is no effect and 10 is complete control
[7] = Postemergence, scale 0 to 10, 0 is no effect, 10 is complete control
[8] = Rate 500 g/ha, Postemergence, scale 0 to 10, 0 no effect, 10 complete control
[9] = Postemergence, Rate 250 g/ha, scale 0 to 10, 0 no effect, 10 complete control
[10] = Preemergence, Rate 125 g/ha, scale 0 to 10 (0 no effect, 10 complete control)
[11] = Preemergence, Rate 250 g/ha, scale of 0 to 10 where 0 is no effect and 10 is complete control
[12] = Postemergence (flood test species), Rate 125 g/ha, scale of 0 to 10 where 0 is no effect and 10 is complete control
[13] = Rate 62 g/ha, Postemergence section, flood test species, scale of 0 to 10 where 0 is no effect and 10 is complete control
[14] = Rate 250 g/ha, headed Pre-emergence (flood test species), scale 0 to 10 (0 no effect, 10 complete control)
[15] = Rate 500 g/ha, headed Pre-emergence (flood test species), scale 0 to 10 (0 no effect, 10 complete control)
[16] = Rate 500 g/ha, listed under Postemergence (flood test species), scale 0 to 10, 0 no effect, 10 complete control
[17] = Rate 1000 g/ha, Pre-emergence (as headed), scale 0 to 10
[18] = Rate 2000 g/ha, Pre-emergence (as headed), scale 0 to 10
[19] = Postemergence, Rate 62 g/ha, scale 0 to 10, 0 is no effect, 10 is complete control
[20] = Rate 125 g/ha, Postemergence, scale 0 to 10, 0 no effect, 10 complete control
[21] = flood test, listed under Postemergence, Rate 250 g/ha, scale 0 to 10, 0 no effect, 10 complete control

`CC(C)N(C(=O)n1oc(=O)n(C(C)C)c1=O)c1ccccc1` [Compound 113] was tested, and the “Velvetleaf plant response rating” value (velvetleaf; [1]) was 1, the “Velvetleaf plant response rating” value (velvetleaf; [2]) was 6 and the “Velvetleaf plant response rating (0 to 10 scale)” value (velvetleaf; [3]) was 7. For the same compound, the “Plant response rating, Velvetleaf” value (velvetleaf; [4]) was 8, the “Velvetleaf plant response rating” value (velvetleaf; [5]) was 8 and the “Velvetleaf plant response rating” value (velvetleaf; [6]) was 0. The “Plant response rating, Velvetleaf” value (velvetleaf; [7]) was 7, the “Velvetleaf plant response rating” value (velvetleaf; [8]) was 8 and the “Nutsedge plant response rating” value (purple nutsedge; [1]) was 0. For the same compound, the “Nutsedge plant response rating” value (purple nutsedge; [9]) was 0, the “Nutsedge plant response rating” value (purple nutsedge; [2]) was 0 and the “Plant response rating, Nutsedge” value (purple nutsedge; [10]) was 0. For the same compound, the “Plant response rating, Nutsedge” value (purple nutsedge; [11]) was 0, the “Nutsedge plant response rating” value (purple nutsedge; [5]) was 0 and the “Nutsedge plant response rating” value (purple nutsedge; [6]) was 0. The “Nutsedge plant response rating” value (purple nutsedge; [8]) was 2, the “Rice plant response rating” value (rice; [12]) was 0 and the “Rice plant response rating” value (rice; [13]) was 0. The “Plant response rating, Rice” value (rice; Rate 250 g/ha, Postemergence (flood test), scale 0 to 10, 0 is no effect, 10 is complete control) was 0, the “Rice plant response rating” value (rice; [14]) was 0 and the “Plant response rating, Rice” value (rice; [15]) was 0. For the same compound, the “Rice plant response rating” value (rice; [16]) was 0, the “Rice plant response rating” value (rice; [17]) was 0 and the “Rice plant response rating” value (rice; [18]) was 7. The “B. signalgrass plant response rating” value (surinam grass; [19]) was 4, the “B. signalgrass plant response rating” value (surinam grass; [9]) was 8 and the “B. signalgrass plant response rating” value (surinam grass; [2]) was 7. For the same compound, the “Plant response rating, B. signalgrass” value (surinam grass; [10]) was 9, the “Plant response rating, B. signalgrass” value (surinam grass; [11]) was 10 and the “B. signalgrass plant response rating” value (surinam grass; [5]) was 10. The “B. signalgrass plant response rating” value (surinam grass; [20]) was 7, the “B. signalgrass plant response rating” value (surinam grass; Rate 500 g/ha, Postemergence, scale of 0 to 10 where 0 is no effect and 10 is complete control) was 8 and the “Wheat plant response rating” value (wheat; [1]) was 3. For the same compound, the “Wheat plant response rating” value (wheat; [2]) was 2, the “Wheat plant response rating (0 to 10 scale)” value (wheat; [3]) was 4 and the “Plant response rating, Wheat” value (wheat; [4]) was 7. For the same compound, the “Wheat plant response rating” value (wheat; [5]) was 8, the “Wheat plant response rating” value (wheat; [6]) was 1 and the “Plant response rating, Wheat” value (wheat; [7]) was 4. The “Wheat plant response rating” value (wheat; [8]) was 6, the “Ducksalad plant response rating” value (duck salad; [12]) was 0 and the “Ducksalad plant response rating” value (duck salad; [13]) was 0. The “Ducksalad plant response rating” value (duck salad; [14]) was 0, the “Plant response rating, Ducksalad” value (duck salad; [15]) was 0 and the “Ducksalad plant response rating” value (duck salad; [16]) was 0. For the same compound, the “Ducksalad plant response rating” value (duck salad; [17]) was 1, the “Ducksalad plant response rating” value (duck salad; [18]) was 8 and the “Ducksalad plant response rating” value (duck salad; [21]) was 0. For the same compound, the “Crabgrass plant response rating” value (crabgrass; [1]) was 9, the “Crabgrass plant response rating” value (crabgrass; [9]) was 9 and the “Crabgrass plant response rating” value (crabgrass; [2]) was 7. For the same compound, the “Plant response rating, Crabgrass” value (crabgrass; [10]) was 10, the “Plant response rating, Crabgrass” value (crabgrass; [11]) was 10 and the “Crabgrass plant response rating” value (crabgrass; [5]) was 10. For the same compound, the “Crabgrass plant response rating” value (crabgrass; [6]) was 9, the “Crabgrass plant response rating” value (crabgrass; [8]) was 9 and the “Blackgrass plant response rating” value (blackgrass; [1]) was 8. For the same compound, the “Blackgrass plant response rating” value (blackgrass; [9]) was 8, the “Blackgrass plant response rating” value (blackgrass; [2]) was 8 and the “Plant response rating, Blackgrass” value (blackgrass; [10]) was 9. The “Plant response rating, Blackgrass” value (blackgrass; [11]) was 10, the “Blackgrass plant response rating” value (blackgrass; [5]) was 10 and the “Blackgrass plant response rating” value (blackgrass; [6]) was 8. For the same compound, the “Blackgrass plant response rating” value (blackgrass; [8]) was 8, the “Sugarbeets plant response rating” value (sugar beet; [1]) was 4 and the “Sugarbeets plant response rating” value (sugar beet; [2]) was 7. For the same compound, the “Sugarbeets plant response rating (0 to 10 scale)” value (sugar beet; [3]) was 8, the “Plant response rating, Sugarbeets” value (sugar beet; [4]) was 9 and the “Sugarbeets plant response rating” value (sugar beet; [5]) was 10. The “Sugarbeets plant response rating” value (sugar beet; [6]) was 4, the “Plant response rating, Sugarbeets” value (sugar beet; [7]) was 5 and the “Sugarbeets plant response rating” value (sugar beet; [8]) was 6. The “Wild oats plant response rating” value (wild oat; [1]) was 2, the “Wild oats plant response rating” value (wild oat; [2]) was 6 and the “Wild oats plant response rating (0 to 10 scale)” value (wild oat; [3]) was 10. For the same compound, the “Plant response rating, Wild oats” value (wild oat; [4]) was 10, the “Wild oats plant response rating” value (wild oat; [5]) was 10 and the “Wild oats plant response rating” value (wild oat; [6]) was 1. For the same compound, the “Plant response rating, Wild oats” value (wild oat; [7]) was 6, the “Wild oats plant response rating” value (wild oat; [8]) was 6 and the “Bedstraw plant response rating” value (bedstraw; [19]) was 1. The “Bedstraw plant response rating” value (bedstraw; [9]) was 7, the “Bedstraw plant response rating” value (bedstraw; [2]) was 4 and the “Plant response rating, Bedstraw” value (bedstraw; [10]) was 6. The “Plant response rating, Bedstraw” value (bedstraw; [11]) was 7, the “Bedstraw plant response rating” value (bedstraw; [5]) was 8 and the “Bedstraw plant response rating” value (bedstraw; [20]) was 4. For the same compound, the “Cocklebur plant response rating” value (cocklebur; [1]) was 1, the “Cocklebur plant response rating” value (cocklebur; [9]) was 1 and the “Cocklebur plant response rating” value (cocklebur; [2]) was 0. For the same compound, the “Plant response rating, Cocklebur” value (cocklebur; [10]) was 1, the “Plant response rating, Cocklebur” value (cocklebur; [11]) was 3 and the “Cocklebur plant response rating” value (cocklebur; [5]) was 3. For the same compound, the “Cocklebur plant response rating” value (cocklebur; [6]) was 1, the “Cocklebur plant response rating” value (cocklebur; [8]) was 4 and the “Redroot pigweed plant response rating” value (pigweed; [1]) was 4. For the same compound, the “Redroot pigweed plant response rating” value (pigweed; [2]) was 8, the “Plant response rating, Redroot pigweed” value (pigweed; [10]) was 8 and the “Plant response rating, Redroot pigweed” value (pigweed; [11]) was 10. The “Redroot pigweed plant response rating” value (pigweed; [5]) was 10, the “Redroot pigweed plant response rating” value (pigweed; [6]) was 3 and the “Plant response rating, Redroot pigweed” value (pigweed; Rate 250 g/ha, Postemergence, scale 0 to 10, 0 is no effect, 10 is complete control) was 6. For the same compound, the “Redroot pigweed plant response rating” value (pigweed; [8]) was 7, the “Barnyardgrass plant response rating” value (bamyardgrass; [19]) was 0 and the “Barnyardgrass plant response rating” value (bamyardgrass; Rate 125 g/ha, Postemergence section (flood test species), scale 0 to 10, 0 no effect, 10 complete control) was 0. The “Barnyardgrass plant response rating” value (bamyardgrass; [14]) was 0, the “Plant response rating, Barnyardgrass” value (bamyardgrass; [15]) was 0 and the “Barnyardgrass plant response rating” value (bamyardgrass; [16]) was 0. The “Barnyardgrass plant response rating” value (bamyardgrass; [17]) was 0, the “Barnyardgrass plant response rating” value (bamyardgrass; Rate 2000 g/ha, Pre-emergence (as headed), scale 0 to 10, 0 no effect, 10 complete control) was 9 and the “Barnyardgrass plant response rating” value (bamyardgrass; [21]) was 0. The “Morningglory plant response rating” value (morningglory; [1]) was 5, the “Morningglory plant response rating” value (morningglory; [9]) was 8 and the “Morningglory plant response rating” value (morningglory; [2]) was 1. The “Plant response rating, Morningglory” value (morningglory; [10]) was 2, the “Plant response rating, Morningglory” value (morningglory; [11]) was 7 and the “Morningglory plant response rating” value (morningglory; [5]) was 8. For the same compound, the “Morningglory plant response rating” value (morningglory; [6]) was 5, the “Morningglory plant response rating” value (morningglory; [8]) was 10 and the “Giant foxtail plant response rating” value (giant foxtail; [1]) was 9. The “Giant foxtail plant response rating” value (giant foxtail; [9]) was 9, the “Giant foxtail plant response rating” value (giant foxtail; [2]) was 9 and the “Plant response rating, Giant foxtail” value (giant foxtail; [10]) was 10. The “Plant response rating, Giant foxtail” value (giant foxtail; [11]) was 10, the “Giant foxtail plant response rating” value (giant foxtail; [5]) was 10 and the “Giant foxtail plant response rating” value (giant foxtail; [6]) was 9. The “Giant foxtail plant response rating” value (giant foxtail; [8]) was 9.
